We go through 39 compounds from ChEMBL document CHEMBL6096672, “In Silico Enabled Discovery of KAI-11101, a Preclinical DLK Inhibitor for the Treatment of Neurodegenerative Disease and Neuronal Injury” (J Med Chem, 2025).

Structures are written as SMILES. pIC50, pKi: −log10 of the molar value. In brackets after ≈: the same amount, converted by molar mass.

Series [1] is described as follows: Inhibition of GST-tagged DLK (1 to 520 residues)(unknown origin) using MKK4 as substrate preincubated for 60 mins followed by substrate/ATP addition measured after 30 mins by HTRF assay. The arrangement: species or system Homo sapiens. On the technique in general: In TR-FRET formats the signal depends on donor and acceptor labels being close together.
Series [2] can be described thus: Inhibition of human DLK transfected in HEK293-T-REx cells assessed as decrease in JNK phosphorylation incubated for 5 hrs by HTRF assay. In kind it is cell-based.
Series [3] addresses CYP3A4 (Homo sapiens, UniProt P08684). As to the kind of experiment: Time dependent inhibition of CYP3A4 (unknown origin) at 30 uM incubated for 30 mins relative to control. In kind it is ADME. To be noted: read-out: TDI.
A short description of series [4]: Intrinsic clearance in human liver microsomes. In kind it is ADME, Microsome. To be noted: read-out: CLH. (Liver microsomes are a subcellular fraction often used to study metabolism.)
A short description of series [5]: Intrinsic clearance in mouse liver microsomes. In kind it is ADME, Microsome. To be noted: read-out: CLH.
A short description of series [6]: Ratio of unbound drug concentration in brain to plasma of mouse at 5 mg/kg. To be noted: brain and plasma, read-out: K(p,uu,brain). It is filed as ADME, organism-based.
The target in series [7] is Voltage-gated inwardly rectifying potassium channel KCNH2 (Homo sapiens, UniProt Q12809). As to the kind of experiment: Inhibition of hERG by patch-clamp method. It is filed as toxicity. On the technique in general: Block of hERG is tested as a sign of cardiac risk.
The nature of series [8]: Kinetic solubility of compound at pH 6.8. It is filed as physicochemical. To be noted: buffer, read-out: Kinetic_solubility.

Chain of CYP3A4 (P08684 whole entry): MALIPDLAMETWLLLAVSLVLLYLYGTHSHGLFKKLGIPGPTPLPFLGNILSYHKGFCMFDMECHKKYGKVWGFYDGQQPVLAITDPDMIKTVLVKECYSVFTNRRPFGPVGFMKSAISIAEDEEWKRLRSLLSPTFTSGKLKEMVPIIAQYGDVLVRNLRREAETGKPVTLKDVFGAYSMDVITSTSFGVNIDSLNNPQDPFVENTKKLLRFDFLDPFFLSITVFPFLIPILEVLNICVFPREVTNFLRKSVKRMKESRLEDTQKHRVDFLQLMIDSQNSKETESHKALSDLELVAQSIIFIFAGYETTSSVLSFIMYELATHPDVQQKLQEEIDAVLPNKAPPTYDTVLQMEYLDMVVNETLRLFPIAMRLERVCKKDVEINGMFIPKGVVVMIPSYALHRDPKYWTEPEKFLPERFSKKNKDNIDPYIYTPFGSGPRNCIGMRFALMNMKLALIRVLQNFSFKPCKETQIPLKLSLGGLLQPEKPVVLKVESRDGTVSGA
Chain of Voltage-gated inwardly rectifying potassium channel KCNH2 (Q12809 whole entry): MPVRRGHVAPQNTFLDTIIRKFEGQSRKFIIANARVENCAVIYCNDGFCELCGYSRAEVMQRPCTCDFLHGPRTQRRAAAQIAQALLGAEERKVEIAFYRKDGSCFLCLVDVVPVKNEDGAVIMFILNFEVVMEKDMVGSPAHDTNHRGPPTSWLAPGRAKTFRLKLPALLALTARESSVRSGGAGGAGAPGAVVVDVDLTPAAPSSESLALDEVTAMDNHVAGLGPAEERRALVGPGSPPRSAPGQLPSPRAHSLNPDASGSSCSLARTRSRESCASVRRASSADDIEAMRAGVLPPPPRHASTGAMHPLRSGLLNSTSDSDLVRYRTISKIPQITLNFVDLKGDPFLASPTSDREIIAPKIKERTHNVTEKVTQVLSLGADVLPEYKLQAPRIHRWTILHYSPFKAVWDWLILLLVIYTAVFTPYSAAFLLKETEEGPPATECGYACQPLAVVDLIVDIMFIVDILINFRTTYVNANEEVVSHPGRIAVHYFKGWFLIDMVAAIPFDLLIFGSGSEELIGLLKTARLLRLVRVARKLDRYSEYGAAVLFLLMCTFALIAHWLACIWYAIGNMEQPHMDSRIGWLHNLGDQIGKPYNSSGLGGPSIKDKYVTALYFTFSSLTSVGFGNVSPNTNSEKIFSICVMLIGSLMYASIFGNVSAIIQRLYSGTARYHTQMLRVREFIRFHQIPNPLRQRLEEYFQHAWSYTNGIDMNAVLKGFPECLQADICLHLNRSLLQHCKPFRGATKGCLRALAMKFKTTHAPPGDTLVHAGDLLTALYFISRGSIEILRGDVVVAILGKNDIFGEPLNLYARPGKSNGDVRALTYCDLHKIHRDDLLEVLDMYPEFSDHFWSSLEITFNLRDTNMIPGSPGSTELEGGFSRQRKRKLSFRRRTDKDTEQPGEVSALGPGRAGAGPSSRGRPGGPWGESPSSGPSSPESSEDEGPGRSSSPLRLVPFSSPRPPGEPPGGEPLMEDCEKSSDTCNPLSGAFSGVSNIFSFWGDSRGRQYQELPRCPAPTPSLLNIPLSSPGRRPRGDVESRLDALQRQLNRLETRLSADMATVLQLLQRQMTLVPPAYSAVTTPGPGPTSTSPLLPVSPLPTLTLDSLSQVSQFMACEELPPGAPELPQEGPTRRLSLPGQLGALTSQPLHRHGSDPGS

Usually pKi stands for the Ki on a negative log10 scale, so that one unit is a factor of ten. A higher pKi goes with a small Ki. For orientation: pIC50 means −log10 of the IC50, conventionally taken in molar units. As to `CCc1nc(-c2cnc(N)c(OC(F)(F)F)c2)c2cc(C)c([C@H]3COCCN3C)cn12`, in series [1], the pKi is 8.28. The pIC50 in series [2] is 6.54. Also, the inhibition at 0.5 h, 30 µM in series [3] was 70%.

`CCc1nc(-c2cnc(N)c(OC(F)(F)F)c2)c2ccn(C3CCOCC3)c(=O)n12` gave a pKi in series [1] of 8.70. In addition, the pIC50 in series [2] is 6.72. The inhibition at 0.5 h, 30 µM in series [3] worked out at 87%.

In the case of `CCn1nc(-c2cnc(N)c(OC(F)(F)F)c2)c2ccn(C3COC3)c(=O)c21`, the figures for the microsomal CLint in series [4] and in series [5] were 9.2 µL/min/mg and 24 µL/min/mg, respectively. This compound also gave a pKi in series [1] of 7.98. For the same compound, the pIC50 in series [2] is 6.36. In series [6], the Kp uu turned out to be 0.5.

For `CCn1nc(-c2cnc(N)c(OC(F)(F)F)c2)c2ccn(C3CCN(C)CC3)c(=O)c21`, the microsomal CLint in series [4] was below 3 µL/min/mg; in series [5], 4 µL/min/mg. Moreover, in series [1], the pKi was 8.60. Also, the pIC50 in series [2] was 6.89. Besides, in series [6], the Kp uu was 0.38.

`CCn1nc(-c2cnc(N)c(C(F)(F)F)c2)c2ccn([C@@H]3CCOC[C@@H]3OC3CC3)c(=O)c21`: the pKi in series [1] is 8.74. The negative-log IC50 (pIC50) in series [2] is 6.74. Moreover, in series [6], the Kp uu is 0.24.

`CN1CCC(c2ccc3c(-c4cnc(N)c(C(F)(F)F)c4)nc([C@@H]4CCCO4)n3c2)CC1` showed a pKi in series [1] of 9.15. In addition, the figures for the pIC50 in series [7] and in series [2] were 6.10 and 7.66, respectively.

Turning to `CC(C)n1cc(-c2cnc(N)c(C(F)(F)F)c2)c2nc(C3CC3)ccc21`, the negative logarithm of the Ki (pKi) in series [1] is 7.57.

`CN1CCC(c2ccc3c(-c4cnc(N)c(C(F)(F)F)c4)nc(C(F)(F)F)n3c2)CC1`: in series [8], the solubility kinetic is 76 µM (≈ 33.7 µg/mL). This compound also showed a pKi in series [1] of 8.68. In addition, the pIC50 in series [2] is 7.03.

Turning to `CCn1nc(-c2cnc(N)c(OC(F)(F)F)c2)c2ccn([C@@H](C)C3CC3)c(=O)c21`, the results for the microsomal CLint in series [4] and in series [5] were below 4 µL/min/mg and 10 µL/min/mg, respectively. This compound gave a pKi in series [1] of 8.82. Besides, the pIC50 in series [2] is 6.96. Also, the Kp uu in series [6] worked out at 0.38.

In series [1], `CC(C)c1n[nH]c2cnc(-c3cnc(N)c(C(F)(F)F)c3)cc12` showed a pKi of 7.10.

For `CCc1nc(-c2cnc(N)c(OC(F)(F)F)c2)c2ccc([C@H]3CC(=O)N(C)C3)cn12`, the pKi in series [1] is 9.11. For the same compound, the pIC50 in series [2] is 7.15. Besides, the inhibition at 0.5 h, 30 µM in series [3] stood at 81%.

As for `CCn1nc(-c2cnc(N)c(OC(F)F)c2)c2ccn([C@H]3CCOC[C@H]3OC(F)(F)F)c(=O)c21`, the pKi in series [1] was 9.04. The pIC50 in series [2] was 7.34. Besides, the Kp uu in series [6] was determined as 0.5.

The compound `CCc1nc(-c2cnc(N)c(OC(F)(F)F)c2)c2cc(Cl)c([C@H]3COCCN3C)cn12` had a pKi in series [1] of 8.15. In series [2], the negative logarithm of the IC50 (pIC50) is 6.35. For the same compound, the inhibition at 0.5 h, 30 µM in series [3] is 67%.

In the case of `Nc1ncc(-c2cn(C3CCC3)c3cccnc23)cc1C(F)(F)F`, the pKi in series [1] is 6.71.

As for `CN1CCC(Cc2ccc3c(-c4cnc(N)c(C(F)(F)F)c4)ncn3c2)CC1`, in series [8], the solubility kinetic came to 68 µM (≈ 26.5 µg/mL). In series [1], this compound gave a pKi of 8.35. Besides, the pIC50 in series [2] is 6.39.

`CCc1nc(-c2cnc(N)c(OC(F)(F)F)c2)c2ccc([C@H]3COCC(=O)N3C)cn12` gave a pKi in series [1] of 9.59. For the same compound, in series [2], the pIC50 was 7.48. Further, the inhibition at 0.5 h, 30 µM in series [3] amounted to 65%.

For `Nc1ncc(-c2ncn3ccccc23)cc1C(F)(F)F`, in series [1], the pKi is 7.20.

Turning to `CCc1nc(-c2cnc(N)c(OC(F)(F)F)c2)c2ccc(C3CCOCC3)nn12`, the negative logarithm of the Ki (pKi) in series [1] is 8.80. Besides, in series [2], the pIC50 was 7.08. Further, in series [3], the inhibition at 0.5 h, 30 µM was found to be 78%.

`CCc1nc(-c2cnc(N)c(C(F)(F)F)c2)c2ccc(C3COC3)cn12` had a pKi in series [1] of 9.00.

Consider `CCc1nc(-c2cnc(N)c(OC(F)(F)F)c2)c2ccc([C@@]3(C)COCCN3C)cn12`, for which the pKi in series [1] is 9.33. For the same compound, the pIC50 in series [2] was 7.54. Besides, the inhibition at 0.5 h, 30 µM in series [3] was found to be 62%.

Consider `CCn1nc(-c2cnc(N)c(OC(F)(F)F)c2)c2ccn([C@@H]3CCOC3)c(=O)c21`, for which the microsomal CLint in series [4] is 22 µL/min/mg; in series [5], 33 µL/min/mg. In series [1], this compound gave a pKi of 8.11. The pIC50 in series [2] is 6.92.

Turning to `CCn1nc(-c2cnc(N)c(OC(F)(F)F)c2)c2ccn([C@@H]3CCOC[C@H]3OC)c(=O)c21`, the microsomal CLint amounted to 9.3 µL/min/mg in series [4] and 24 µL/min/mg in series [5]. In series [1], this compound showed a pKi of 8.72. Besides, the pIC50 in series [2] is 7.07. For the same compound, the Kp uu in series [6] came to 0.43.

On to `Nc1ncc(-c2n[nH]c3ccsc23)cc1C(F)(F)F`, for which the pKi in series [1] was 7.14.

In series [1], `CN1CCOC[C@H]1c1ccc2c(-c3cnc(N)c(OC(F)(F)F)c3)nc(C(F)(F)F)n2c1` showed a pKi of 8.46. The pIC50 in series [2] is 6.52. The inhibition at 0.5 h, 30 µM in series [3] was 33%.

Regarding `Nc1ncc(-c2cc3cn[nH]c3cn2)cc1C(F)(F)F`, the pKi in series [1] was 6.38.

In turn, `Nc1ncc(-c2cc3cn[nH]c3c(C3CC3)n2)cc1C(F)(F)F` had a pKi in series [1] of 7.23.

As to `CN1CCC(c2ccc3c(-c4cnc(N)c(C(F)(F)F)c4)ncn3c2)CC1`, the solubility kinetic in series [8] stood at 80 µM (≈ 30 µg/mL). In addition, in series [1], the pKi was 8.82. The pIC50 in series [2] was 6.89.

Take `CCn1nc(-c2cnc(N)c(OC(F)(F)F)c2)c2ccc([C@H]3COCCN3C)nc21`: the pKi in series [1] was 8.62. Besides, the pIC50 in series [2] was 7.03. For the same compound, the inhibition at 0.5 h, 30 µM in series [3] was determined as 14%.

Compound `Nc1ncc(-c2ccc3ncsc3n2)cc1C(F)(F)F` had a pKi in series [1] of 6.38.

In turn, `Nc1ncc(-c2n[nH]c3cnccc23)cc1C(F)(F)F` gave a pKi in series [1] of 6.83.

In the case of `Nc1ncc(-c2nn(C3CC3)c3c(=O)n(C4CCOCC4)ccc23)cc1OC(F)(F)F`, the microsomal CLint came to 13 µL/min/mg in series [4] and 17 µL/min/mg in series [5]. For the same compound, the pKi in series [1] was 8.47. Also, the pIC50 in series [2] was 6.98. Besides, the Kp uu in series [6] amounted to 0.31.

In series [1], `CN1CCC(c2ccc3c(-c4cnc(N)c(C(F)(F)F)c4)nc(C#N)n3c2)CC1` showed a pKi of 8.32. Besides, the pIC50 in series [2] was 6.79.

The compound `Nc1ncc(-c2c[nH]c3cccnc23)cc1C(F)(F)F` gave a pKi in series [1] of 6.71.

`CCn1nc(-c2cnc(N)c(OC(F)F)c2)c2ccn([C@H]3CCOC[C@H]3OC3CC3)c(=O)c21`: the pKi in series [1] was 9.24. Besides, in series [2], the pIC50 was 7.49. The Kp uu in series [6] is 0.15.

In turn, `CCn1nc(-c2cnc(N)c(OC(F)F)c2)c2ccn([C@H]3CCOC[C@H]3OC3CCC3)c(=O)c21` had a negative-log Ki (pKi) in series [1] of 9.19. In addition, the pIC50 in series [2] is 7.46.

Take `Nc1ncc(-c2ncn3cc(C4CCN(C5COC5)CC4)ccc23)cc1C(F)(F)F`: the solubility kinetic in series [8] is 6 µM (≈ 2.5 µg/mL). The compound further gave a pKi in series [1] of 8.49. For the same compound, the pIC50 in series [2] was 6.87.

As for `CCn1nc(-c2cnc(N)c(OC(F)(F)F)c2)c2ccn([C@@H]3CCCOCC3)c(=O)c21`, the microsomal CLint in series [4] turned out to be 18 µL/min/mg; in series [5], 25 µL/min/mg. In series [1], this compound showed a pKi of 8.89. Besides, the pIC50 in series [2] is 6.85. In addition, the Kp uu in series [6] turned out to be 0.29.

Turning to `CC(C)c1ccc2c(-c3cnc(N)c(C(F)(F)F)c3)ncn2c1`, the solubility kinetic in series [8] was determined as 10 µM (≈ 3.2 µg/mL). Besides, the pKi in series [1] was 8.04. Further, the pIC50 in series [2] is 6.31.

Turning to `CCn1nc(-c2cnc(N)c(OC(F)(F)F)c2)c2ccn(C3CCN(C4COC4)CC3)c(=O)c21`, the microsomal CLint worked out at 7.9 µL/min/mg in series [4] and 8.3 µL/min/mg in series [5]. This compound also showed a pKi in series [1] of 8.52. Further, the pIC50 in series [2] was 6.89. Also, in series [6], the Kp uu was found to be 0.15.
